Reference: PubChem BioAssay (NCI)
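Grown in 96-well plates, cells were treated for 48 hours with each compound at five concentrations. Insufficient inhibition: endpoint recorded as highest concentration tested. At the GI50, growth is halved. TGI: concentration producing complete growth inhibition.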

How the values were obtained:
Test in all cases: DTP human tumour cell line panel, 48 h
[1] = tested on: COLO 205 colon
[2] = tested on: IGROV1 ovarian
[3] = tested on: MALME-3M melanoma
[4] = tested on: NCI-H226 lung
[5] = tested on: PC-3 prostate
[6] = tested on: SK-OV-3 ovarian
[7] = tested on: SNB-19 CNS
[8] = tested on: UACC-257 melanoma
[9] = tested on: DMS 114 small cell lung
[10] = tested on: SNB-78 CNS

| SMILES | TGI [1] | TGI [2] | TGI [3] | TGI [4] | TGI [5] | TGI [6] | TGI [7] | TGI [8] | GI50 [1] | GI50 [2] | GI50 [3] | GI50 [4] | GI50 [5] | GI50 [6] | GI50 [7] | GI50 [8] | TGI [9] | TGI [10] | GI50 [10] |
| --- | --- | --- | --- | --- | --- | --- | --- | --- | --- | --- | --- | --- | --- | --- | --- | --- | --- | --- | --- |
| CN(C)CCCc1c2ccccc2nc2ccc(Cl)cc12 | 29.8 µM | 31 µM | 30.1 µM | 40.7 µM | 37 µM | 41.7 µM | 33.5 µM | 26.4 µM | – | – | – | – | – | – | – | – | – | – | – |
| COc1cc2c3c(c1OC)C1(C=CC(=O)C=C1)CC3NCC2 (configuration not stated) | > 100 µM | > 100 µM | > 100 µM | > 100 µM | > 100 µM | > 100 µM | > 100 µM | > 100 µM | – | – | – | – | – | – | – | – | – | – | – |
| CCCCNC(=O)Oc1ccc(/C(=C(/CC)Cc2ccccc2)c2ccc(OCCN3CCCCCC3)cc2)cc1 | 39.7 µM | > 100 µM | 35.3 µM | > 100 µM | > 100 µM | > 100 µM | > 100 µM | 40.2 µM | 20.6 µM | 30.5 µM | 18.2 µM | > 100 µM | 33.2 µM | > 100 µM | 39.8 µM | 19.8 µM | – | – | – |
| COc1cc(/C=C2\CC3C4CC=C5C[C@@H](O)CC[C@]5(C)C4CC[C@]3(C)C2=O)ccc1OCCCn1ccnc1 (some centres not stated) | > 100 µM | 52.8 µM | 36.9 µM | 39.2 µM | > 100 µM | > 100 µM | > 100 µM | 35.3 µM | 26.4 µM | 23.7 µM | 17.3 µM | 19.6 µM | > 100 µM | 29.1 µM | 38.8 µM | 15.8 µM | – | – | – |
| COc1ccc(N2C(=O)C3c4[nH]c5ccccc5c4C4CCCCCCC4C3C2=O)cc1 (configuration not stated) | > 48.6 µM | 59.1 µM | 41.4 µM | 31.6 µM | – | 33.2 µM | 28.1 µM | > 100 µM | – | – | – | – | – | – | – | – | 28 µM | > 100 µM | – |
| CCC[CH2][Sn]1([CH2]CCC)[O]C(=O)c2ccc(N)cc2[O]1 | 1.98 µM | 2.97 µM | 1.18 µM | 2.64 µM | 2.23 µM | 2.92 µM | 2.17 µM | 2.11 µM | 0.594 µM | 1.51 µM | 0.144 µM | 0.857 µM | 0.985 µM | 1.34 µM | 0.734 µM | 0.548 µM | – | 1.18 µM | 0.0801 µM |
| CCOC(=O)Nc1nc2cc(OCC)ccc2s1 | > 100 µM | > 100 µM | > 100 µM | > 100 µM | > 100 µM | > 100 µM | > 100 µM | > 100 µM | 7.84 µM | > 91.1 µM | > 100 µM | > 100 µM | > 100 µM | > 100 µM | > 100 µM | > 100 µM | – | – | – |
| O=C(O)Cc1ccccc1CCc1ccccc1Cl | > 100 µM | > 100 µM | > 100 µM | > 100 µM | – | > 100 µM | > 100 µM | > 100 µM | – | – | – | – | – | – | – | – | – | > 100 µM | – |
| O=C(N/N=C/c1ccc(Cl)cc1)c1[nH]c2ccc(Cl)cc2c1-c1ccccc1 | 0.406 µM | 12.1 µM | 76.4 µM | > 44.5 µM | 44.8 µM | – | > 56.1 µM | > 100 µM | 0.202 µM | 0.0523 µM | 17.8 µM | 0.29 µM | 0.2 µM | 0.387 µM | 0.504 µM | 7.42 µM | – | – | – |
| COc1ccc([C@@H](O)c2cc(-c3ncnc4cc(N5CCOCC5)ccc34)c(F)cc2Cl)nn1 | 16.5 µM | 4.99 µM | 55.8 µM | 60.4 µM | 30.9 µM | 10.7 µM | > 100 µM | 30 µM | 2.85 µM | 0.469 µM | 6.4 µM | 3.82 µM | 0.865 µM | 1.27 µM | 10.8 µM | 1.99 µM | – | – | – |
| COc1cc(/C=C2\CN(C(=O)CCN3CCC(=NO)CC3)C/C(=C\c3cc(OC)c(OC)c(OC)c3)C2=O)cc(OC)c1OC | 1.27 µM | 0.793 µM | 0.579 µM | 2.85 µM | 1.12 µM | 4.78 µM | 1.58 µM | 2.44 µM | 0.419 µM | 0.275 µM | 0.211 µM | 0.792 µM | 0.298 µM | 1.87 µM | 0.452 µM | 0.51 µM | – | – | – |
| CCOC(=O)C1=C(Nc2ccc(Cl)c(Cl)c2)OC/C1=N\NC(=O)Cc1ccccc1 | > 100 µM | > 100 µM | > 100 µM | > 100 µM | – | > 100 µM | > 100 µM | > 100 µM | – | – | – | – | – | – | – | – | > 100 µM | > 100 µM | – |
| Clc1ccc(-c2c(C3=NCCN3)nnn2-c2ccccc2)cc1 | > 100 µM | > 100 µM | > 100 µM | > 100 µM | – | > 100 µM | > 100 µM | > 100 µM | – | – | – | – | – | – | – | – | > 100 µM | > 100 µM | – |
| COc1cc(/C=C/c2ccc(OC)c(OC)c2OC)cc(OC)c1OC | 33.3 µM | 83.3 µM | 48.7 µM | 39.7 µM | – | 57.6 µM | 97.9 µM | 52.8 µM | – | – | – | – | – | – | – | – | 60.9 µM | 46.4 µM | – |
| Oc1c(CN2CCCC2)cc(CSCc2ccccc2)c2cccnc12 | 18.7 µM | 11.3 µM | 9.06 µM | 4.8 µM | 14 µM | 2.82 µM | 13.5 µM | 7.03 µM | 4.82 µM | 1.93 µM | 2.04 µM | 1.11 µM | 1.55 µM | 0.666 µM | 1.72 µM | 2.14 µM | – | – | – |
| CCCCCCCCCCCCCCCCCCNC(=O)OCC(CNS(=O)(=O)CCC[n+]1cccc2ccccc21)COC (configuration not stated) | – | – | 18.7 µM | 3.84 µM | 4.84 µM | > 24.5 µM | 6.13 µM | 8.24 µM | – | – | – | – | – | – | – | – | – | 7.92 µM | – |
| Clc1ccc2c(c1)C(N1CCNCC1)=Nc1ccccc1O2 | 2.67 µM | 11.1 µM | 3.5 µM | 11.9 µM | 8.74 µM | 4.5 µM | 12.8 µM | 2.87 µM | 1.36 µM | 2.89 µM | 1.75 µM | 2.57 µM | 1.54 µM | 1.94 µM | 2.97 µM | 1.5 µM | – | – | – |
